Values of other authors in the PKSmart pharmacokinetics tables (Seal et al. 2025).

Legend:
[1] = Lombardo et al. 2013, J Clin Pharmacol 53:178, doi 10.1177/0091270012440282; conditions: for Vd / clearance: in vivo, iv; for fraction unbound: plasma
[2] = Lombardo, Berellini, Obach 2018, Drug Metab Dispos 46:1466, doi 10.1124/dmd.118.082966; conditions: human; for MRT / Vd / clearance / half-life: in vivo, iv; for fraction unbound: plasma

SMILES: CC1=C(C(=O)O)N2C(=O)C(NC(=O)C(N)C3=CCC=CC3)[C@H]2SC1 (some centres undefined)
- Vd ([1]; rat): 1.1 L/kg
- clearance ([1]; rat): 21.7 mL/min/kg
- MRT [2]: 1.1 h
- Vd [2]: 0.21 L/kg
- clearance [2]: 3.3 mL/min/kg
- half-life [2]: 51 min

SMILES: Nc1ccn(C[C@@H](CO)OCP(=O)(O)O)c(=O)n1
- Vd ([1]; monkey): 0.8 L/kg
- clearance ([1]; monkey): 3.5 mL/min/kg
- Vd ([1]; rat): 2 L/kg
- clearance ([1]; rat): 0.7 mL/min/kg
- fraction unbound ([1]; rat): 1
- MRT [2]: 3.3 h
- Vd [2]: 0.49 L/kg
- clearance [2]: 2.5 mL/min/kg
- half-life [2]: 156 min

SMILES: O=C1c2c(O)ccc(O)c2C(=O)c2c(NCCNCCO)ccc(NCCNCCO)c21
- Vd ([1]; dog): 26.6 L/kg
- clearance ([1]; dog): 10 mL/min/kg
- MRT [2]: 25 h
- Vd [2]: 12 L/kg
- clearance [2]: 7.9 mL/min/kg
- half-life [2]: 3180 min
- fraction unbound [2]: 0.25

SMILES: CN1CC[C@]23c4c5ccc(O)c4OC2C(=O)CC[C@H]3[C@H]1C5 (some centres undefined)
- Vd ([1]; dog): 5.8 L/kg
- clearance ([1]; dog): 71 mL/min/kg
- half-life [2]: 138 min

SMILES: COc1cc(NS(C)(=O)=O)ccc1Nc1c2ccccc2nc2ccccc12
- Vd ([1]; dog): 2.8 L/kg
- clearance ([1]; dog): 16 mL/min/kg
- fraction unbound ([1]; dog): 0.081
- Vd ([1]; rat): 4.5 L/kg
- clearance ([1]; rat): 83 mL/min/kg
- fraction unbound ([1]; rat): 0.1
- MRT [2]: 6.2 h
- Vd [2]: 1.6 L/kg
- clearance [2]: 4.3 mL/min/kg
- half-life [2]: 282 min
- fraction unbound [2]: 0.029

SMILES: CCN1CCC[C@H]1CNC(=O)c1c(OC)ccc(Br)c1OC
- Vd ([1]; dog): 1.6 L/kg
- clearance ([1]; dog): 4.9 mL/min/kg
- fraction unbound ([1]; dog): 0.12
- Vd ([1]; rat): 4.5 L/kg
- clearance ([1]; rat): 170 mL/min/kg
- fraction unbound ([1]; rat): 0.74
- MRT [2]: 6.4 h
- Vd [2]: 0.65 L/kg
- clearance [2]: 1.7 mL/min/kg
- half-life [2]: 330 min

SMILES: CN1C(=O)NC(=O)C(C)(C2=CCCCC2)C1=O (centres undefined)
- Vd ([1]; rat): 2.5 L/kg
- clearance ([1]; rat): 40.6 mL/min/kg
- MRT [2]: 5.4 h
- Vd [2]: 1.1 L/kg
- clearance [2]: 3.4 mL/min/kg
- half-life [2]: 294 min
- fraction unbound [2]: 0.53

SMILES: CCN(CC)CCNC(=O)c1ccc(NC(C)=O)cc1
- Vd ([1]; dog): 1.9 L/kg
- clearance ([1]; dog): 6.4 mL/min/kg
- fraction unbound ([1]; dog): 0.913
- Vd ([1]; rat): 2.9 L/kg
- clearance ([1]; rat): 28 mL/min/kg
- fraction unbound ([1]; rat): 0.58
- MRT [2]: 7.9 h
- Vd [2]: 1.9 L/kg
- clearance [2]: 4 mL/min/kg
- half-life [2]: 384 min
- fraction unbound [2]: 0.9

SMILES: COc1ccnc(C[S+](O)c2nc3ccc(OC(F)F)cc3[n-]2)c1OC (centres undefined)
- Vd ([1]; rat): 0.35 L/kg
- clearance ([1]; rat): 8.5 mL/min/kg
- MRT [2]: 1.3 h
- Vd [2]: 0.17 L/kg
- clearance [2]: 2.2 mL/min/kg
- half-life [2]: 114 min
- fraction unbound [2]: 0.02

SMILES: O=C(O)CC(NC(=O)CP(=O)(O)O)C(=O)O (centres undefined)
- Vd ([1]; dog): 0.29 L/kg
- clearance ([1]; dog): 4.1 mL/min/kg
- Vd ([1]; monkey): 0.2 L/kg
- clearance ([1]; monkey): 2.3 mL/min/kg
- Vd ([1]; rat): 1.1 L/kg
- clearance ([1]; rat): 17.4 mL/min/kg
- MRT [2]: 4.51 h
- Vd [2]: 0.33 L/kg
- clearance [2]: 1.22 mL/min/kg
- half-life [2]: 287 min

SMILES: Cc1ccc(C(=O)c2cc(O)c(O)c([N+](=O)[O-])c2)cc1
- Vd ([1]; dog): 0.16 L/kg
- clearance ([1]; dog): 1.9 mL/min/kg
- Vd ([1]; rat): 0.21 L/kg
- clearance ([1]; rat): 8.8 mL/min/kg
- MRT [2]: 1.1 h
- Vd [2]: 0.12 L/kg
- clearance [2]: 1.9 mL/min/kg
- half-life [2]: 66 min
- fraction unbound [2]: 0.0012

SMILES: CC(C)NCC(O)COc1cccc2ccccc12 (centres undefined)
- Vd ([1]; dog): 6.79 L/kg
- clearance ([1]; dog): 51.8 mL/min/kg
- fraction unbound ([1]; dog): 0.04
- Vd ([1]; monkey): 2.28 L/kg
- clearance ([1]; monkey): 20.8 mL/min/kg
- fraction unbound ([1]; monkey): 0.03
- Vd ([1]; rat): 4.58 L/kg
- clearance ([1]; rat): 94.3 mL/min/kg
- fraction unbound ([1]; rat): 0.1
- MRT [2]: 4.3 h
- Vd [2]: 3.1 L/kg
- clearance [2]: 12 mL/min/kg
- half-life [2]: 204 min

SMILES: O=[N+]([O-])O[C@H]1CO[C@H]2[C@@H]1OC[C@H]2O[N+](=O)[O-]
- Vd ([1]; dog): 3 L/kg
- clearance ([1]; dog): 180 mL/min/kg
- Vd ([1]; monkey): 1.7 L/kg
- clearance ([1]; monkey): 58.8 mL/min/kg
- Vd ([1]; rat): 2.6 L/kg
- clearance ([1]; rat): 122 mL/min/kg
- MRT [2]: 1 h
- Vd [2]: 1.9 L/kg
- clearance [2]: 31 mL/min/kg
- half-life [2]: 102 min
- fraction unbound [2]: 0.72

SMILES: C[C@@H]1CN(C2CCC(C#N)(c3ccc(F)cc3)CC2)CC[C@]1(C(=O)O)c1ccccc1 (some centres undefined)
- Vd ([1]; rat): 1.36 L/kg
- clearance ([1]; rat): 27 mL/min/kg
- fraction unbound ([1]; rat): 0.46
- MRT [2]: 45.3 h
- Vd [2]: 1.17 L/kg
- clearance [2]: 0.43 mL/min/kg
- half-life [2]: 1980 min
- fraction unbound [2]: 0.453

SMILES: CCN(CC)CCNC(=O)c1ccc(NS(C)(=O)=O)cc1
- Vd ([1]; dog): 1.4 L/kg
- clearance ([1]; dog): 9 mL/min/kg
- Vd ([1]; rat): 2.08 L/kg
- clearance ([1]; rat): 25.6 mL/min/kg
- MRT [2]: 3.7 h
- Vd [2]: 0.82 L/kg
- clearance [2]: 3.7 mL/min/kg
- half-life [2]: 228 min

SMILES: Nc1nc(C(=NO)C(=O)NC2C(=O)N3C(C(=O)O)=C(C=C4CCN(CC(F)(F)F)C4=O)CS[C@H]23)cs1 (some centres undefined)
- Vd ([1]; dog): 0.18 L/kg
- clearance ([1]; dog): 2.7 mL/min/kg
- fraction unbound ([1]; dog): 0.16
- Vd ([1]; monkey): 0.12 L/kg
- clearance ([1]; monkey): 0.77 mL/min/kg
- fraction unbound ([1]; monkey): 0.05
- Vd ([1]; rat): 0.15 L/kg
- clearance ([1]; rat): 0.95 mL/min/kg
- fraction unbound ([1]; rat): 0.025
- MRT [2]: 4.8 h
- Vd [2]: 0.11 L/kg
- clearance [2]: 0.38 mL/min/kg
- half-life [2]: 228 min
- fraction unbound [2]: 0.043

SMILES: O=c1[nH]cc(F)c(=O)[nH]1
- Vd ([1]; rat): 0.25 L/kg
- clearance ([1]; rat): 33 mL/min/kg
- fraction unbound ([1]; rat): 0.69
- fraction unbound [2]: 0.64

SMILES: CCOc1ccccc1OCCN[C@H](C)Cc1ccc(OC)c(S(N)(=O)=O)c1
- Vd ([1]; dog): 1.74 L/kg
- clearance ([1]; dog): 19.3 mL/min/kg
- fraction unbound ([1]; dog): 0.1
- Vd ([1]; rat): 3.25 L/kg
- clearance ([1]; rat): 82.2 mL/min/kg
- fraction unbound ([1]; rat): 0.24
- MRT [2]: 5.6 h
- Vd [2]: 0.21 L/kg
- clearance [2]: 0.62 mL/min/kg
- half-life [2]: 408 min

SMILES: CCc1nn(CCCN2CCN(c3cccc(Cl)c3)CC2)c(=O)n1CCOc1ccccc1
- Vd ([1]; dog): 3.24 L/kg
- clearance ([1]; dog): 26 mL/min/kg
- MRT [2]: 1.1 h
- Vd [2]: 0.51 L/kg
- clearance [2]: 7.5 mL/min/kg
- half-life [2]: 72 min

SMILES: O=C1c2ccccc2S(=O)(=O)N1CCCCNC[C@H]1CCc2ccccc2O1
- Vd ([1]; rat): 1.48 L/kg
- clearance ([1]; rat): 38.3 mL/min/kg
- fraction unbound ([1]; rat): 0.054
- MRT [2]: 1.6 h
- Vd [2]: 0.21 L/kg
- clearance [2]: 2.2 mL/min/kg
- half-life [2]: 72 min

SMILES: COCCOC(=O)C1=C(C)NC(C)=C(C(=O)OC(C)C)C1c1cccc([N+](=O)[O-])c1 (centres undefined)
- Vd ([1]; dog): 3 L/kg
- clearance ([1]; dog): 18 mL/min/kg
- fraction unbound ([1]; dog): 0.03
- Vd ([1]; monkey): 3.62 L/kg
- clearance ([1]; monkey): 33 mL/min/kg
- fraction unbound ([1]; monkey): 0.095
- Vd ([1]; rat): 5.5 L/kg
- clearance ([1]; rat): 19.6 mL/min/kg
- fraction unbound ([1]; rat): 0.03
- MRT [2]: 1.2 h
- Vd [2]: 1.1 L/kg
- half-life [2]: 78 min

SMILES: CC#CCC(C)[C@H](O)/C=C/[C@@H]1[C@H]2C/C(=C/CCCC(=O)O)C[C@H]2C[C@H]1O (some centres undefined)
- Vd ([1]; dog): 0.93 L/kg
- clearance ([1]; dog): 67.2 mL/min/kg
- Vd ([1]; rat): 0.79 L/kg
- clearance ([1]; rat): 32.4 mL/min/kg
- Vd [2]: 0.37 L/kg
- clearance [2]: 16 mL/min/kg
- half-life [2]: 34.2 min
- fraction unbound [2]: 0.4

SMILES: C#C[C@]1(OS(=O)(=O)O)CC[C@H]2[C@@H]3CCc4cc(O)ccc4[C@H]3CC[C@@]21C
- Vd ([1]; monkey): 8.7 L/kg
- clearance ([1]; monkey): 13 mL/min/kg
- MRT [2]: 7.8 h
- Vd [2]: 0.61 L/kg
- clearance [2]: 1.3 mL/min/kg
- half-life [2]: 558 min

SMILES: CCCC[C@@H]1CC(=O)[C@]2(O)O[C@@H]3[C@@H](NC)[C@@H](O)[C@@H](NC)[C@H](O)[C@H]3O[C@@H]2O1
- Vd ([1]; dog): 49.8 L/kg
- clearance ([1]; dog): 2.69 mL/min/kg
- fraction unbound ([1]; dog): 0.533
- Vd ([1]; rat): 4.46 L/kg
- clearance ([1]; rat): 4.28 mL/min/kg
- fraction unbound ([1]; rat): 0.62
- MRT [2]: 6.9 h
- Vd [2]: 0.7 L/kg
- clearance [2]: 1.7 mL/min/kg
- half-life [2]: 660 min
- fraction unbound [2]: 0.65

SMILES: COc1cccc2c1C(=O)c1c(O)c3c(c(O)c1C2=O)C[C@@](O)(C(=O)CO)C[C@@H]3O[C@H]1C[C@H](N)[C@H](O)[C@H](C)O1
- Vd ([1]; dog): 31.6 L/kg
- clearance ([1]; dog): 7.93 mL/min/kg
- Vd ([1]; rat): 5.5 L/kg
- clearance ([1]; rat): 32.4 mL/min/kg
- MRT [2]: 24 h
- Vd [2]: 22 L/kg
- clearance [2]: 15 mL/min/kg
- half-life [2]: 1920 min

SMILES: COc1ccc2c3c1O[C@H]1C[C@@H](O)C=C[C@@]31CCN(C)C2
- Vd ([1]; dog): 2.78 L/kg
- clearance ([1]; dog): 12.3 mL/min/kg
- fraction unbound ([1]; dog): 0.981
- Vd ([1]; rat): 5.2 L/kg
- clearance ([1]; rat): 31.7 mL/min/kg
- fraction unbound ([1]; rat): 0.75
- MRT [2]: 6.8 h
- Vd [2]: 2.3 L/kg
- clearance [2]: 5.6 mL/min/kg
- half-life [2]: 318 min

SMILES: COc1ccc(CCNCC(O)COc2cccc(C)c2)cc1OC (centres undefined)
- Vd ([1]; dog): 4 L/kg
- clearance ([1]; dog): 45 mL/min/kg
- fraction unbound ([1]; dog): 0.04
- fraction unbound ([1]; rat): 0.06
- MRT [2]: 2 h
- Vd [2]: 0.67 L/kg
- clearance [2]: 5.5 mL/min/kg
- half-life [2]: 114 min
- fraction unbound [2]: 0.015

SMILES: COC(=O)C1=C(C)NC(C)=C(C(=O)OC)C1c1ccccc1[N+](=O)[O-]
- Vd ([1]; dog): 1.15 L/kg
- Vd ([1]; rat): 0.27 L/kg
- fraction unbound ([1]; rat): 0.035
- half-life [2]: 114 min
